Laboratory results reported in patent publication US12295997B2, “Prostate neoantigens and their uses” (Janssen Biotech, Inc., priority 2020, dated 2025).

System: CD8+ and CD4+ T cells (autologous CD3+ Pan-T cells isolated from human normal PBMCs)
Assay: Exogenous autologous normal donor restimulation assay (15-mer overlapping peptide pools on CD1c+ dendritic cells, TNFα/IFNγ flow cytometry)
Type: cell-based
Details: 15-mer overlapping peptide pool; for Max. Fold Change over background CD4+ TNFαINFγ double positive DP / Max. Fold Change over background CD8+ TNFαINFγ double positive DP / Max. Frequency of CD4+ TNFαINFγ DP / Max. Frequency of CD8+ TNFαINFγ DP: Table 28, additional neoantigens, highest across normal donors; for Maximum Fold Change Over Background CD4+ cells / Maximum Fold Change Over Background CD8+ cells / Maximum Frequency of TNFα/IFNγ Double Positive CD4+ T cells / Maximum Frequency of TNFα/IFNγ Double Positive CD8+ T cells: Table 25; for Maximum Fold Change Over Background CD4+ cells: TNFα+IFNγ+ CD4+ T cells; for Maximum Fold Change Over Background CD4+ cells / Maximum Fold Change Over Background CD8+ cells: highest fold change over negative control across normal donors; for Maximum Fold Change Over Background CD8+ cells: TNFα+IFNγ+ CD8+ T cells; for Maximum Frequency of TNFα/IFNγ Double Positive CD4+ T cells / Maximum Frequency of TNFα/IFNγ Double Positive CD8+ T cells: highest frequency across normal donors
Experimental: CD1c+ Dendritic Cells (DC) isolated from human normal PBMCs were thawed using media (IMDM (Gibco) supplemented with glutamine, HEPES, 5% human serum (Sigma), and 1× Pen-Strep). DC cells were resuspended in media supplemented with IL-4 (Peprotech, 80 ng/mL) and GM-CSF (Gibco, 80 ng/mL), plated in 6 well microplates, and rested overnight at 37° C. (5% CO2). The following day, DC cells were counted and plated in a 96 well round bottom microplate at a concentration of 30,000 viable cells per well. Lyophilized peptides (15-mer overlapping peptides) were solubilized in 100% DMSO and pooled by neoantigen to between 5 mg/mL and 20 mg/mL. Neoantigen peptides pools were added to DCs for a final concentration of […] and rested for 2 hours at 37° C. (5% CO2). CEF Peptide Pool “Plus” (Cellular Technologies, Ltd.) was utilized as a positive control and DMSO at the same final concentration as the experimental peptides was utilized as a negative control. After 2 hours, DC cells were irradiated with 50 gray of ionizing radiation. Autologous CD3+ Pan-T cells isolated from human normal PBMCs were thawed using media. Following irradiation, autologous Pan-T cells were added to the irradiated DCs at 300,000 viable cells per well. Human IL-15 (Peprotech) was added to all wells at final concentration of 10 ng/mL.
Plates were incubated at 37° C. (5% CO2) for a total of 12 days. Media was refreshed every 2-3 days with IL-15 (10 ng/mL final concentration) and IL-2 (R&D systems, 10 IU/mL final concentration). On day 11 cells were re-stimulated with identical experimental peptide pools or controls, at same concentration as peptide stimulation on Day 1. Protein Inhibitor Cocktail (eBioscience) was added to every well and plate was incubated overnight at 37° C. (5% CO2).
On day 12, cells were stained for intracellular flow cytometry analysis. The cells were washed with PBS and stained with Live/Dead Fixable Aqua Dead Cell stain (Thermo-Fisher). Following the live/dead stain, cells were blocked using Biotin-Free Fc Receptor Blocker (Accurate Chemical & Scientific Corp). Extracellular cellular flow panel (1 μL/antibody per well in 50 μL) consisted of CD3 PerCP-Cy5.5 (Biolegend), CD4 BV421 (Biolegend), and CD8 APC-Cy7 (Biolegend). After extracellular staining, cells were fixed using Foxp3/fTranscription Factor Staining Buffer Set (eBioscience) and stained for intracellular proteins (1:50 dilution) using TNFα FITC (R&D Systems) and IFNγ BV785 (Biolegend). Cells were washed and resuspended in stain buffer and analyzed using a BD Celesta flow cytometer.
Flow cytometry cell staining analysis was completed using FlowJo v10. Cells were gated on live, singlet, CD3+ cells. The CD8+ and CD4+ T cells were analyzed for TNFα/IFNγ expression and the frequency of double positive TNFα/IFNγ CD8+ and the frequency of double positive TNFα/IFNγ CD4+ T cells were recorded. Responses were assessed to be positive when the frequency of double positive TNFα/IFNγ CD8+ or TNFα/IFNγ CD4+ T cells due to stimulation with an experimental peptide pool was increased greater than or equal to 3-fold over the DMSO only negative control for that donor and at least 0.01%.
(§1) Overlapping 15-mer peptides were designed to span each neoantigen incorporated into NeoGAd20 and NeoMVA to assess their ability to activate T cells using the exogenous autologous normal donor restimulation assay described in Example 1 as pools using TNFα and IFNγ production by CD8^+ and CD4^+ T cells as a readout.
as §1, with “Immunogenicity of various additional identified neoantigens was assessed. Overlapping” for “Overlapping”, “similarly to what was done in Example 11” for “incorporated into NeoGAd20 and NeoMVA”

Sequence | Max. Fold Change over background CD4+ TNFαINFγ double positive DP | Max. Fold Change over background CD8+ TNFαINFγ double positive DP | Max. Frequency of CD4+ TNFαINFγ DP | Max. Frequency of CD8+ TNFαINFγ DP | Maximum Fold Change Over Background CD4+ cells | Maximum Fold Change Over Background CD8+ cells | Maximum Frequency of TNFα/IFNγ Double Positive CD4+ T cells | Maximum Frequency of TNFα/IFNγ Double Positive CD8+ T cells
AGAGTISEGSVLHGQRLECDARRFFGCGTTILAEWEHH (listed as Homo sapiens) [AS59, ACSL3 alternative splicing] | 59.58 | 4.22 | 0.3 | 0.08 |  |  |  | 
ANLKGTLQVRSGQAVSPR (listed as Homo sapiens) [AS21, RECQL4 alternative splicing] | 1.7 | 3.81 | 0.07 | 0.12 |  |  |  | 
CEERGAAGSLISCE (listed as Homo sapiens) [FUS6, TMPRSS2->ERG gene fusion] |  |  |  |  | 2.27 | 3.50 | 0.016 | 0.056
CGASACDVSLIAMDSA (listed as Homo sapiens) [FUS1, SLC45A3->ELK4 gene fusion] |  |  |  |  | 8.33 | 1.94 | 0.100 | 0.031
DCMLSEEGGQARRGGSLCSLAAHTIASAARGRFLSRLSNFCAVVKASRGAPSCTWE (listed as Homo sapiens) [AS40, LRRC45 alternative splicing] | 15.34 | 178.52 | 0.89 | 2.41 |  |  |  | 
DGFSGSLFAVVTRRCYFLKWRTIFPQSLMWL (listed as Homo sapiens) [FUS18, OPN3->CHML gene fusion] | 31.76 | 42.33 | 0.04 | 0.91 |  |  |  | 
DGHSYTSKVNCLLLQDGFHGCVSITGAAGRRNLSIFLFLMLCKLEFHA (listed as Homo sapiens) [AS55.1, SPOCK1 alternative splicing] | 20.66 | 25.26 | 0.08 | 1.47 |  |  |  | 
DLRRVATYCAPLPSSWRPGTGTTIPPRMRSC (listed as Homo sapiens) [FUS23, NUDT14->JAG2 gene fusion] | 12.77 | 11.05 | 0.12 | 0.62 |  |  |  | 
DYWAQKEKGSSSFLRPSC (listed as Homo sapiens) [AS7, ACSM1 alternative splicing] |  |  |  |  | 2.50 | 52.60 | 0.045 | 2.630
DYWAQKEKISIPRTHLC (listed as Homo sapiens) [AS6, ACSM1 alternative splicing] |  |  |  |  | 31.67 | 6.50 | 0.380 | 0.078
EAFQRAAGEGGPGRGGARRGARVLQSPFCRAGAGEWLGHQSLR (listed as Homo sapiens) [AS41, RHPN1 alternative splicing] |  |  |  |  | 2.20 | 190.60 | 0.022 | 9.530
ENASLVFTGSNSPIPACELSSHPAHGISPWIPSPGNEHFHGIKKQVKAIKVE (listed as Homo sapiens) [AS48, SYT17 alternative splicing] | 13.45 | 9.21 | 0.13 | 0.29 |  |  |  | 
ENSGNASRWLHVPSSSDDWLGWKKSSAITSNS (listed as Homo sapiens) [AS50, LRIF1 alternative splicing] | 17.22 | 1.6 | 0.07 | 0.12 |  |  |  | 
FARKMLEKVHRQHLQLSHNSQE (listed as Homo sapiens) [AS12, EVPL alternative splicing] | 7.32 | 6.03 | 0.28 | 0.19 |  |  |  | 
FKKFDGPCGERGGGRTARALWARGDSVLTPALDPQTPVRAPSLTRAAAAV (listed as Homo sapiens) [AS47, AGRN alternative splicing] |  |  |  |  | 2.58 | 4.80 | 0.031 | 0.240
FMIGELVGELCCQLTFRLPFLESLCQAVVTQALRFNPSFQEVCIYQDTDLM (listed as Homo sapiens) [AS2, SLC30A4 alternative splicing] | 110.68 | 5.06 | 0.86 | 0.09 |  |  |  | 
FVQGKDWGLKKFIRRDF (listed as Homo sapiens) [Neoantigen M10, SPOP F133L] |  |  |  |  | 14.14 | 1.89 | 0.1 | 0.09
FVQGKDWGVKKFIRRDF (listed as Homo sapiens) [Neoantigen M12, SPOP F133V] |  |  |  |  | 8.94 | 6.67 | 0.05 | 0.12
GEVELSEGGEGQRHLAFPWACSGPGWRGVCCAAVEPA (listed as Homo sapiens) [AS32, TONSL alternative splicing] | 2.04 | 3.81 | 0.08 | 0.12 |  |  |  | 
GLNLNTDRPGGYSYSIWWKNNAKNR (listed as Homo sapiens) [AS17, MPHOSPH9 alternative splicing] | 3.18 | 2.38 | 0.01 | 0.07 |  |  |  | 
GMECTLGQVGAPSPRREEDGWRGGHSRFKADVPAPQGPCWGGQPGSAPSSAPPEQSLLD (listed as Homo sapiens) [AS51, CPNE7 alternative splicing] |  |  |  |  | 8.75 | 33.13 | 0.140 | 0.530
GNTTLQQLGEASQAPSGSLIPLRLPLLWEVRG (listed as Homo sapiens) [AS16, LRRC45 alternative splicing] |  |  |  |  | 7.78 | 24.17 | 0.140 | 0.290
